For the data set, the target named is MDR1 (P-glycoprotein, ABCB1) (Homo sapiens, UniProt P08183). Briefly: TP_TRANSPORTER: ATP hydrolysis in membranes from MDR1-expressing insect cells. Type of data set: functional, cell membranes, insect cell, Membrane.

Each structure is given as a SMILES string.

The source of these data is ChEMBL document CHEMBL2074534, “In vitro P-glycoprotein affinity for atypical and conventional antipsychotics” (Life Sci, 2002).

Chain of MDR1 (P-glycoprotein, ABCB1) (P08183 whole entry): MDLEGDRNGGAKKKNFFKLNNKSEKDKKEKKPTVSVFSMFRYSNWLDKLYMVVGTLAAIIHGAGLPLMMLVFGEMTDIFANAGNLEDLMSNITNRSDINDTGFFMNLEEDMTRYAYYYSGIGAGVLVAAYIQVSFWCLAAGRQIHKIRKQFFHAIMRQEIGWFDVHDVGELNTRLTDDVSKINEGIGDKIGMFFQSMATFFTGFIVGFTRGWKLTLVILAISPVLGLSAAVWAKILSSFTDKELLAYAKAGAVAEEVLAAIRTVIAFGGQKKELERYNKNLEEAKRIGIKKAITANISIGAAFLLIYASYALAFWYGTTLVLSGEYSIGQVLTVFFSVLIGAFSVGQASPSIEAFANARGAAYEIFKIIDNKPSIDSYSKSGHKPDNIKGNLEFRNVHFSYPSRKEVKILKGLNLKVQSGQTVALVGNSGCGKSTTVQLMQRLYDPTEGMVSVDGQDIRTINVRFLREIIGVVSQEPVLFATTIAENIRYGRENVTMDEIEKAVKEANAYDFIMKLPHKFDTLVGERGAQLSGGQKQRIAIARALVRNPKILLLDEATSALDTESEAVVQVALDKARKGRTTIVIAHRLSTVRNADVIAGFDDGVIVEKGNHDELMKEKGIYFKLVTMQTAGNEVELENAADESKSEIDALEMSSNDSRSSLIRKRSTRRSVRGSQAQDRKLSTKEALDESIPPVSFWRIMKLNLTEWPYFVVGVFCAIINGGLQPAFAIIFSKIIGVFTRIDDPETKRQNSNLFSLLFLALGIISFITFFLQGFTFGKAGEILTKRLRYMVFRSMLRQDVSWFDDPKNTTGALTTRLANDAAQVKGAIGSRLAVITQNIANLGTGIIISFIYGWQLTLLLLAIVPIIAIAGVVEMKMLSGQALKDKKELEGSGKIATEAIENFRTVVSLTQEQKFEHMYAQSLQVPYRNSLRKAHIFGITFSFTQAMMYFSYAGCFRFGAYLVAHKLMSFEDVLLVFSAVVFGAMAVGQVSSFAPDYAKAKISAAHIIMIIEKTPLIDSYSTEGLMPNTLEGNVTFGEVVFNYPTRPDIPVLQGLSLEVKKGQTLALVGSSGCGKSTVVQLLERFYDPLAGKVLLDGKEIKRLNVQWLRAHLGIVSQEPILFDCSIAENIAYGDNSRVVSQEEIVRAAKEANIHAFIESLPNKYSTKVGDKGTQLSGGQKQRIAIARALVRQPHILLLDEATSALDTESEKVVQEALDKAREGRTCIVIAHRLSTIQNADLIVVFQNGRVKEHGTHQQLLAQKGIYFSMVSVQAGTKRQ

Consider `Cc1cc2c(s1)Nc1ccccc1N=C2N1CCN(C)CC1` [OLANZAPINE], for which the Km (commonly the substrate concentration at which the rate is half of its maximum) amounted to 8.3 µM.

As for `CN(C)CCCN1c2ccccc2Sc2ccc(Cl)cc21` [CHLORPROMAZINE], the Km stood at 27.4 µM.

Turning to `O=C(CCCN1CCC(O)(c2ccc(Cl)cc2)CC1)c1ccc(F)cc1` [HALOPERIDOL], the Km amounted to 33 µM.
